Data from patent publication US20260042774A1, “CAMPTOTHECIN-7-ETHYLAMINE DERIVATIVE, PREPARATION METHOD THEREFOR, AND USE THEREOF” (HANGZHOU ADCORIS BIOPHARMA CO., LTD, priority 2022, published 2026).
Like-named read-outs stand apart in the source and are kept apart here.

Experiments:
Type in all cases: cell-based
[1] = test system: Human esophageal cancer cells OE33; experiment: Tumor cell growth inhibitory activity (CCK-8), OE33
Experimental: (§1) Human esophageal cancer cells OE33 (human breast adenocarcinoma cells SK-BR-3, or human gastric cancer cells NCI-N87) was cultured in RPMI1640 (Cellmax) supplemented with 10% fetal bovine serum (Cellmax). Cells in the exponential growth phase were diluted to a concentration of 1×10^5 cells/mL by culture medium and added to 96-well cell culture plates at 100 μL per well, then returned back and incubated overnight in a 37° C. incubator with 5% CO2. On the following day, the compounds were diluted to concentrations of 10000 nM, 2000 nM, 400 nM, 80 nM, 16 nM, 3.2 nM, 0.64 nM, and 0.13 nM by culture medium and the diluted compounds were added to the 96-well cell culture plates at 2 μL per well, with three replicate wells for each concentration. Negative control and blank control groups without addition of compounds were added with 2 μL of the dilution liquid per well. After the addition of the compounds, the plates were returned back to the 37° C. incubator with 5% CO2 to continue the incubation for 72 h. After the incubation, the cell culture plates were removed, and the culture medium was aspirated using a pipette. Then, 100 μL of culture medium containing 10% CCK-8 was added to each well, and the plates were incubated at 37° C. for 3 h. After the incubation, the plates were removed, kept in the dark, and placed in an ELISA plate. Absorbance was measured at 630 nm as the reference wavelength and 450 nm as the test wavelength. The IC50 values (Table 2) were calculated using the four-parameter logistic regression method in GraphPad.

[2] = test system: human breast adenocarcinoma cells SK-BR-3; experiment: Tumor cell growth inhibitory activity (CCK-8), SK-BR-3
Experimental: as §1

[3] = test system: human gastric cancer cells NCI-N87; experiment: Tumor cell growth inhibitory activity (CCK-8), NCI-N87
Experimental: as §1

NCI-H1975 = experiment: Tumor cell growth inhibitory activity, NCI-H1975
MDA-MB-231 = experiment: Tumor cell growth inhibitory activity, MDA-MB-231; settings: MDA-MB-231 cells, read-out: IC50 (nM) for inhibiting the growth of tumor cells, MDA-MB-231
[4] = Homo sapiens, OE33 cells, 72 h incubation, CCK-8, read-out: IC50 (nM) for inhibiting the growth of tumor cells, OE33
[5] = Homo sapiens, SK-BR-3 cells, 72 h incubation, CCK-8, read-out: IC50 (nM) for inhibiting the growth of tumor cells, SK-BR-3
[6] = Homo sapiens, NCI-N87 cells, 72 h incubation, CCK-8, read-out: IC50 (nM) for inhibiting the growth of tumor cells, NCI-N87
[7] = Homo sapiens, NCI-H1975 cells, read-out: IC50 (nM) for inhibiting the growth of tumor cells, NCI-H1975
[8] = Homo sapiens, OE33, 72 h, read-out: IC50 (nM) for inhibiting the growth of tumor cells, OE33, OE33 cells, 72 h incubation, CCK-8
[9] = Homo sapiens, SK-BR-3, 72 h, read-out: IC50 (nM) for inhibiting the growth of tumor cells, SK-BR-3, SK-BR-3 cells, 72 h incubation, CCK-8
[10] = Homo sapiens, NCI-N87, 72 h, read-out: IC50 (nM) for inhibiting the growth of tumor cells, NCI-N87, NCI-N87 cells, 72 h incubation, CCK-8
[11] = Homo sapiens, NCI-H1975, read-out: IC50 (nM) for inhibiting the growth of tumor cells, NCI-H1975, NCI-H1975 cells

Structure (SMILES)	IC50 [1, 4]	IC50 [2, 5]	IC50 [3, 6]	IC50 (NCI-H1975; [7])	IC50 (MDA-MB-231; Homo sapiens)	other results
CC[C@@]1(O)C(=O)OCc2c1cc1n(c2=O)Cc2c-1nc1cc(F)c(C)cc1c2CCNC(C)=O [Compound 1, 7-(2-Acetylamino)ethyl-10-methyl-11-fluorocamptothecin]	21.3 nM	19.5 nM	3.78 nM	361 nM	350 nM	–
CC[C@@]1(O)C(=O)OCc2c1cc1n(c2=O)Cc2c-1nc1cc(F)c(C)cc1c2CCNC(=O)C(F)F [Compound 2, 7-(2-Difluoroacetylamino)ethyl-10-methyl-11-fluorocamptothecin]	9.02 nM	16.6 nM	1.9 nM	101 nM	–	–
CC[C@@]1(O)C(=O)OCc2c1cc1n(c2=O)Cc2c-1nc1cc(F)c(C)cc1c2CCNC1CCOCC1 [Compound 4, 7-(2-(Tetrahydropyran-4-yl)amino)ethyl-10-methyl-11-fluorocamptothecin]	4.39 nM	6.12 nM	2.48 nM	247 nM	321 nM	–
CC[C@@]1(O)C(=O)OCc2c1cc1n(c2=O)Cc2c-1nc1cc(F)c(C)cc1c2CCN1CCNCC1 [Compound 5, 7-(2-(piperazin-4-yl))ethyl-10-methyl-11-fluorocamptothecin]	44 nM	60.4 nM	5.66 nM	77.3 nM	–	–
CC[C@@]1(O)C(=O)OCc2c1cc1n(c2=O)Cc2c-1nc1cc(F)c(C)cc1c2CCNC1CCC(O)CC1 (stereo partly drawn) [Compound 6, 7-(2-(4-Hydroxycyclohexyl)amino)ethyl-10-methyl-11-fluorocamptothecin]	24.4 nM	28.7 nM	3.85 nM	298 nM	–	–
CC[C@@]1(O)C(=O)OCc2c1cc1n(c2=O)Cc2c-1nc1cc(F)c(C)cc1c2CCNC1CCC(OC)CC1 (stereo partly drawn) [Compound 7, 7-(2-(4-Methoxycyclohexyl)amino)ethyl-10-methyl-11-fluorocamptothecin]	6.46 nM	22.2 nM	2.02 nM	92.2 nM	147 nM	–
CC[C@@]1(O)C(=O)OCc2c1cc1n(c2=O)Cc2c-1nc1cc(F)c(C)cc1c2CCNCCN=[N+]=[N-] [Compound 8, 7-(2-(2-Azidoethyl)amino)ethyl-10-methyl-11-fluorocamptothecin]	3.26 nM	4.92 nM	0.68 nM	18.5 nM	80.4 nM	–
CC[C@@]1(O)C(=O)OCc2c1cc1n(c2=O)Cc2c-1nc1cc(F)c(C)cc1c2CCN[C@@H](C)CCO [Compound 9, 7-(2-((S)-4-Hydroxybutan-2-yl)amino)ethyl-10-methyl-11-fluorocamptothecin]	6.59 nM	14.1 nM	1.6 nM	121 nM	173 nM	–
CC[C@@]1(O)C(=O)OCc2c1cc1n(c2=O)Cc2c-1nc1cc(F)c(F)cc1c2CCNCCO [Compound 10, 7-(2-Hydroxyethylamino)ethyl-10,11-difluorocamptothecin]	58.3 nM	76.5 nM	8.17 nM	–	–	–
CC[C@@]1(O)C(=O)OCc2c1cc1n(c2=O)Cc2c-1nc1cc(F)c(F)cc1c2CCN[C@@H](C)COC [Compound 11, 7-(2-((S)-2-Methoxyisopropyl)amino)ethyl-10,11-difluorocamptothecin]	7.26 nM	19.2 nM	1.67 nM	12.6 nM	157 nM	–
CC[C@@]1(O)C(=O)OCc2c1cc1n(c2=O)Cc2c-1nc1cc(F)c(F)cc1c2CCNC1CCC(O)CC1 (stereo partly drawn) [Compound 12, 7-(2-(4-Hydroxycyclohexyl)amino)ethyl-10,11-difluorocamptothecin]	43 nM	41.7 nM	5.47 nM	85.6 nM	–	–
CC[C@@]1(O)C(=O)OCc2c1cc1n(c2=O)Cc2c-1nc1cc(F)c(F)cc1c2CCNC1CCOCC1 [Compound 13, 7-(2-(Tetrahydropyran-4-yl)amino)ethyl-10,11-difluorocamptothecin]	1.96 nM	5.63 nM	0.93 nM	9.83 nM	72.7 nM	–
CC[C@@]1(O)C(=O)OCc2c1cc1n(c2=O)Cc2c-1nc1cc(F)c(F)cc1c2CCNC1CCC(OC)CC1 (stereo partly drawn) [Compound 14, 7-(2-(4-Methoxycyclohexyl)amino)ethyl-10,11-difluorocamptothecin]	26.1 nM	36.1 nM	5.3 nM	383 nM	460 nM	–
CC[C@@]1(O)C(=O)OCc2c1cc1n(c2=O)Cc2c-1nc1cc(F)c(F)cc1c2CCNCCN=[N+]=[N-] [Compound 15, 7-(2-(2-Azidoethyl)amino)ethyl-10,11-difluorocamptothecin]	32.3 nM	7.5 nM	1.02 nM	115 nM	–	–
CC[C@@]1(O)C(=O)OCc2c1cc1n(c2=O)Cc2c-1nc1cc3c(cc1c2CCNCCN=[N+]=[N-])OCO3 [Compound 16, 7-(2-(2-Azidoethyl)amino)ethyl-10,11-methylenedioxycamptothecin]	–	–	–	–	–	IC50 ([1]; read-out: IC50 (nM) for inhibiting the growth of tumor cells, OE33, OE33 cells, 72 h incubation, CCK-8): 3.13 nM; IC50 ([2]; read-out: IC50 (nM) for inhibiting the growth of tumor cells, SK-BR-3, SK-BR-3 cells, 72 h incubation, CCK-8): 8.96 nM; IC50 ([3]; read-out: IC50 (nM) for inhibiting the growth of tumor cells, NCI-N87, NCI-N87 cells, 72 h incubation, CCK-8): 1.01 nM; IC50 (NCI-H1975; read-out: IC50 (nM) for inhibiting the growth of tumor cells, NCI-H1975, NCI-H1975 cells): 9.22 nM; IC50 (MDA-MB-231): 116 nM
CC[C@@]1(O)C(=O)OCc2c1cc1n(c2=O)Cc2c-1nc1cc3c(cc1c2CCNC1CCC(O)CC1)OCO3 (stereo partly drawn) [Compound 26, 7-(2-(4-Hydroxycyclohexyl)amino)ethyl-10,11-methylenedioxycamptothecin]	–	–	–	–	–	IC50 [1, 8]: 129 nM; IC50 [2, 9]: 218 nM; IC50 [3, 10]: 150 nM
CC[C@@]1(O)C(=O)OCc2c1cc1n(c2=O)Cc2c-1nc1cc3c(cc1c2CCN[C@@H](C)CO)OCO3 [Compound 28, 7-(2-((S)-Hydroxyisopropyl)amino)ethyl-10,11-methylenedioxycamptothecin]	–	–	–	–	–	IC50 [1, 8]: 49.6 nM; IC50 [2, 9]: 77.2 nM; IC50 [3, 10]: 61.5 nM; IC50 (NCI-H1975; [11]): 119 nM
CC[C@@]1(O)C(=O)OCc2c1cc1n(c2=O)Cc2c-1nc1cc3c(cc1c2CCN(CCOC)C(=O)CO)OCO3 [Compound 32, 7-(2-(N-Hydroxyacetyl(2-methoxyethyl))amino)ethyl-10,11-methylenedioxycamptothecin]	11.6 nM	6.48 nM	2.09 nM	–	–	–
CC[C@@]1(O)C(=O)OCc2c1cc1n(c2=O)Cc2c-1nc1cc3c(cc1c2CCN(CC(F)F)C(=O)CO)OCO3 [Compound 33, 7-(2-(N-Hydroxyacetyl(2-difluoroethyl))amino)ethyl-10,11-methylenedioxycamptothecin]	–	–	–	–	–	IC50 [1, 8]: 11.9 nM; IC50 [2, 9]: 8.93 nM; IC50 [3, 10]: 2.63 nM
CC[C@@]1(O)C(=O)OCc2c1cc1n(c2=O)Cc2c-1nc1cc3c(cc1c2CCNC(=O)CN=[N+]=[N-])OCO3 [Compound 37, 7-(2-Azidoacetylamino)ethyl-10,11-methylenedioxycamptothecin]	–	–	–	–	–	IC50 [1, 8]: 25.2 nM; IC50 [2, 9]: 41.3 nM; IC50 [3, 10]: 5.57 nM; IC50 (NCI-H1975; [11]): 229 nM
CC[C@@]1(O)C(=O)OCc2c1cc1n(c2=O)Cc2c-1nc1cc3c(cc1c2CCNS(C)(=O)=O)OCO3 [Compound 38, 7-(2-Methanesulfonamido)ethyl-10,11-methylenedioxycamptothecin]	–	–	–	–	–	IC50 [1, 8]: 199 nM; IC50 [2, 9]: 332 nM; IC50 [3, 10]: 48 nM; IC50 (NCI-H1975; [11]): 282 nM
CC[C@@]1(O)C(=O)OCc2c1cc1n(c2=O)Cc2c-1nc1cc3c(cc1c2CCNc1ncn[nH]1)OCO3 [Compound 41, 7-(2-(1,2,4-Triazol-5-ylamino))ethyl-10,11-methylenedioxycamptothecin]	–	–	–	–	–	IC50 [1, 8]: 24.2 nM; IC50 [2, 9]: 89.9 nM; IC50 [3, 10]: 33.9 nM; IC50 (NCI-H1975; [11]): 136 nM
